Data published in US10975119B2, “Selective cysteine protease inhibitors and uses thereof” (Genesis Technologies Limited, priority 2011, dated 2021).
pIC50: −log10 of the molar value.

Legend:
Format in all cases: biochemical
[1] = target: T1, Caspase-9 (Homo sapiens, UniProt P55211); test: Caspase-9 inhibitor screening assay (BioVision kit, LEHD-AFC); conditions: for inhibition at 10 µM: read-out: % Inhibition at 10 uM Casp9; for inhibition at 100 µM: read-out: % Inhibition at 100 uM Casp9; for pIC50: read-out: IC50 Casp9
T1 construct: purchased BioVision K159-100
T1 sequence (P55211 1-315 limits assumed): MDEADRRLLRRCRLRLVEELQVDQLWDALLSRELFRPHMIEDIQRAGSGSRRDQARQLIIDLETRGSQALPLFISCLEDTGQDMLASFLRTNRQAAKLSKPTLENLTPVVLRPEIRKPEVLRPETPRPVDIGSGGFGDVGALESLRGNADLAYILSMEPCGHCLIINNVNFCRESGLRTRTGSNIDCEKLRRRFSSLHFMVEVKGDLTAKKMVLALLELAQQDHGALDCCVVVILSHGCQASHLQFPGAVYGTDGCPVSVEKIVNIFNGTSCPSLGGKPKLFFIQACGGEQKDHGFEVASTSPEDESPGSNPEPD
T1 sequence (P55211 331-416 limits assumed): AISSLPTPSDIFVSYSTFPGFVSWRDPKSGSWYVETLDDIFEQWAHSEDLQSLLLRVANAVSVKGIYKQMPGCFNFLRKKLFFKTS
Outline: (§1)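 Each caspase cleaved its own AFC-labelled peptide substrate, and released AFC was read by fluorescence. % inhibition came from RFU against an uninhibited control.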

[2] = target: T2, Caspase-2 (Homo sapiens, UniProt P42575); test: Caspase-2 inhibitor screening assay (BioVision kit, VDVAD-AFC); conditions: for inhibition at 10 µM: read-out: % Inhibition at 10 uM Casp2; for inhibition at 100 µM: read-out: % Inhibition at 100 uM Casp2; for pIC50: read-out: IC50 Casp2
T2 construct: mixing the compounds with the respective active caspases; purchased BioVision K152-100
T2 sequence (P42575 170-325 limits assumed): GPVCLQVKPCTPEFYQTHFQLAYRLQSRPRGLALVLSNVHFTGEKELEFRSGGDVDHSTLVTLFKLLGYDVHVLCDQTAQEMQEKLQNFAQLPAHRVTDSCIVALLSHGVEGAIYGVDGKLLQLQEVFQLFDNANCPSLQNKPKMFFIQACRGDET
T2 sequence (P42575 334-452 limits assumed): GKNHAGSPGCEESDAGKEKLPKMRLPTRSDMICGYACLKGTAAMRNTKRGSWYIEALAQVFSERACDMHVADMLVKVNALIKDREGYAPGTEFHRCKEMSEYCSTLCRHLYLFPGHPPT
Protocol: The efficacy of an array of compounds as an inhibitor of the activity of Caspases 1 through 10 were assessed by using the respective Caspase Inhibitor Drug Screening Kits (Caspase-1 Catalog #: K151-100, Caspase-2 Catalog #: K152-100, Caspase-3 Catalog #: K153-100, Caspase-4 Catalog #: K154-100, Caspase-5 Catalog #: K155-100, Caspase-6 Catalog #: K156-100, Caspase-7 Catalog #: K157-100, Caspase-8 Catalog #: K158-100, Caspase-9 Catalog #: K159-100, Caspase-10 Catalog #: K160-100, BioVision) following the instructions of the manufacturer. […] Active caspases cleaved their respective synthetic substrates to release free AFC, which was then quantified by fluorometry.
Briefly, the compounds were first tested at 2 concentrations (10 uM and 100 uM final) to determine if there is a hit. […] Each condition was tested in duplicates. […] For some samples, a smaller range of concentrations was tested depending on the % Inhibition results at 10 uM and 100 uM. Results were summarized in Tables 2, 3, and 4 herein after. Table 2 represents the IC50 values (uM) of the test compounds as inhibitors of the activity of the various caspases.
(*) RFU (no inhibitor control)—RFU (compound at a specific concentration)
RFU (no inhibitor control)

[3] = target: T3, Caspase-6 (Homo sapiens, UniProt P55212); test: Caspase-6 inhibitor screening assay (BioVision kit, VEID-AFC); conditions: for inhibition at 10 µM: read-out: % Inhibition at 10 uM Casp6; for inhibition at 100 µM: read-out: % Inhibition at 100 uM Casp6; for pIC50: read-out: IC50 Casp6
T3 construct: mixing the compounds with the respective active caspases; purchased BioVision K156-100
T3 sequence (P55212 24-179 limits assumed): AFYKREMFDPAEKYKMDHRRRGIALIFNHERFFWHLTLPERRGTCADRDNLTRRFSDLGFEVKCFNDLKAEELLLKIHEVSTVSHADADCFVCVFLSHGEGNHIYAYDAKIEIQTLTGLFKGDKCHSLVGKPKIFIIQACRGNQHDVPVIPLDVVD
T3 sequence (P55212 194-293 limits assumed): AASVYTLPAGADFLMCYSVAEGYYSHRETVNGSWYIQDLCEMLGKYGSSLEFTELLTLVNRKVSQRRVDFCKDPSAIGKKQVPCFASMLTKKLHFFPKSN
Outline: as §1

[4] = target: T4, Caspase-7 (Homo sapiens, UniProt P55210); test: Caspase-7 inhibitor screening assay (BioVision kit, DEVD-AFC); conditions: for inhibition at 10 µM: read-out: % Inhibition at 10 uM Casp7; for inhibition at 100 µM: read-out: % Inhibition at 100 uM Casp7; for pIC50: read-out: IC50 Casp7
T4 construct: mixing the compounds with the respective active caspases; purchased BioVision K157-100
T4 sequence (P55210 24-198 limits assumed): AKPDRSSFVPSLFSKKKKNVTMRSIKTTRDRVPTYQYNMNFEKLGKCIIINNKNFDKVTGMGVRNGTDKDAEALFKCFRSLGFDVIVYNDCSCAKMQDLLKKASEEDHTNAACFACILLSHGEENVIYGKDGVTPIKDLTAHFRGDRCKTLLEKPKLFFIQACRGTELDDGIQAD
T4 sequence (P55210 207-303 limits assumed): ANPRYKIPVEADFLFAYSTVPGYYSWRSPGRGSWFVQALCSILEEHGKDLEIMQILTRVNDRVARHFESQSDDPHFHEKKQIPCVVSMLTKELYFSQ
Outline: as §1

[5] = target: T5, Caspase-10 (Homo sapiens, UniProt Q92851); test: Caspase-10 inhibitor screening assay (BioVision kit, AEVD-AFC); conditions: for inhibition at 10 µM: read-out: % Inhibition at 10 uM Casp10; for inhibition at 100 µM: read-out: % Inhibition at 100 uM Casp10; for pIC50: read-out: IC50 Casp10
T5 construct: mixing the compounds with the respective active caspases; purchased BioVision K160-100
T5 sequence (Q92851 220-415 limits assumed): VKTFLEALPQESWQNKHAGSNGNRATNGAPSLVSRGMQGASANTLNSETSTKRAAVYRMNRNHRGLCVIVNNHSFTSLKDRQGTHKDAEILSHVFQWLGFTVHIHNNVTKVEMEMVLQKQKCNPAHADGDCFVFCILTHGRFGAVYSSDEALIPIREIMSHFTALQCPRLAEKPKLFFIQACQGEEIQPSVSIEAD
T5 sequence (Q92851 416-521 limits assumed): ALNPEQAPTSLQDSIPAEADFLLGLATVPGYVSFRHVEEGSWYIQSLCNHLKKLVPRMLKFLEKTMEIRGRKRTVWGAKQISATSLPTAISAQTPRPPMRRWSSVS
Outline: as §1

[6] = target: T6, Caspase-4 (Homo sapiens, UniProt P49662); test: Caspase-4 inhibitor screening assay (BioVision kit, LEVD-AFC); conditions: for inhibition at 10 µM: read-out: % Inhibition at 10 uM Casp4; for inhibition at 100 µM: read-out: % Inhibition at 100 uM Casp4; for pIC50: read-out: IC50 Casp4
T6 construct: mixing the compounds with the respective active caspases; purchased BioVision K154-100
T6 sequence (P49662 81-270 limits assumed): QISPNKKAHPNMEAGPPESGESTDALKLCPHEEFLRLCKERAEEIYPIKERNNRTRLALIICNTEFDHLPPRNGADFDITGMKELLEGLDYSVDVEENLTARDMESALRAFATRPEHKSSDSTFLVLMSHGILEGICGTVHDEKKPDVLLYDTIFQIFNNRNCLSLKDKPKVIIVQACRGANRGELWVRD
T6 sequence (P49662 290-377 limits assumed): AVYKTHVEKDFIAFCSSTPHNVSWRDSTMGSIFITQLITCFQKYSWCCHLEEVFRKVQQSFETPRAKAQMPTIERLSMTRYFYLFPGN
Outline: as §1

SMILES | inhibition at 10 µM [1] [%] | inhibition at 100 µM [1] [%] | pIC50 [1] | inhibition at 10 µM [2] [%] | inhibition at 100 µM [2] [%] | pIC50 [2] | inhibition at 10 µM [3] [%] | inhibition at 100 µM [3] [%] | pIC50 [3] | inhibition at 10 µM [4] [%] | inhibition at 100 µM [4] [%] | pIC50 [4] | inhibition at 10 µM [5] [%] | inhibition at 100 µM [5] [%] | pIC50 [5] | inhibition at 10 µM [6] [%] | inhibition at 100 µM [6] [%] | pIC50 [6]
CS(=O)(=O)/C=C/[C@H](CC(=O)O)NC(=O)[C@@H](N)CCC(=O)O [Compound 22, Glu-Asp methylsulfone] | 2 | 0 | < 4.00 | 12 | 13 | < 4.00 | 1 | 0 | < 4.00 | 0 | 0 | < 4.00 | 15 | 14 | < 4.00 | 0 | 0 | < 4.00
CS(=O)(=O)/C=C/[C@H](CC(=O)O)NC(=O)[C@H]1CCCN1C(=O)[C@@H](NC(=O)[C@H](CC(=O)O)NC(=O)OCc1ccccc1)c1ccccc1 [Compound 30, Z-Asp-Phenylglycine-Pro-Asp-methyl vinyl sulfone] | 48 | 92 | 4.97 | 11 | 66 | 4.27 | 0 | 2 | < 4.00 | 68 | 97 | 5.21 | 43 | 92 | 4.89 | 50 | 100 | 5.00
CC(C)(C)[C@@H](NC(=O)[C@H](CC(=O)O)NC(=O)OCc1ccccc1)C(=O)N1CC[C@@H]1C(=O)N[C@H](/C=C/S(C)(=O)=O)CC(=O)O [Compound 32, Z-Asp-t-Leu-(Azetidine-2-carbonyl)-Asp-methyl vinyl sulfone] | 91 | 100 | 5.95 | 43 | 86 | 4.88 | 0 | 1 | < 4.00 | 97 | 100 | 6.26 | 97 | 100 | 6.38 | 76 | 100 | 5.25
CC(C)[C@H](NC(=O)[C@H](CCC(=O)O)NC(=O)[C@H](Cc1c[nH]c2ccccc12)NC(=O)OCc1ccccc1)C(=O)N[C@H](/C=C/S(C)(=O)=O)CC(=O)O [Compound 40, Z-Trp-Glu-Val-Asp-methyl vinyl sulfone] | 87 | 99 | 5.76 | 1 | 10 | < 4.00 | 7 | 51 | ~4.00 | 19 | 90 | 4.63 | 80 | 99 | 5.48 | 100 | 100 | 6.74

Second part, the compound after the results:

inhibition at 10 µM [1] [%] | inhibition at 100 µM [1] [%] | pIC50 [1] | inhibition at 10 µM [2] [%] | inhibition at 100 µM [2] [%] | pIC50 [2] | inhibition at 10 µM [3] [%] | inhibition at 100 µM [3] [%] | pIC50 [3] | inhibition at 10 µM [4] [%] | inhibition at 100 µM [4] [%] | pIC50 [4] | inhibition at 10 µM [5] [%] | inhibition at 100 µM [5] [%] | pIC50 [5] | inhibition at 10 µM [6] [%] | inhibition at 100 µM [6] [%] | pIC50 [6] | SMILES
0 | 0 | < 4.00 | 0 | 0 | < 4.00 | 0 | 0 | < 4.00 | 1 | 0 | < 4.00 | 21 | 15 | < 4.00 | 1 | 0 | < 4.00 | CS(=O)(=O)/C=C/[C@H](CC(=O)O)NC(=O)[C@H]1CCC(=O)N1 [Compound 24, (2-Pyrrolidinone-5-carbonyl)-Asp methyl vinyl sulfone]
39 | 87 | 4.77 | 0 | 19 | < 4.00 | 0 | 19 | < 4.00 | 95 | 99 | 6.07 | 31 | 98 | 4.73 | 57 | 99 | 5.04 | CC(C)[C@H](NC(=O)[C@H](Cc1cn(C)c2ccccc12)NC(=O)[C@H](CC(=O)O)NC(=O)OCc1ccccc1)C(=O)N[C@H](/C=C/S(C)(=O)=O)CC(=O)O [Compound 36, Z-Asp-Trp(N-Me)-Val-Asp-methyl vinyl sulfone]
82 | 97 | 6.10 | 2 | 4 | – | 88 | 96 | 6.22 | 0 | 31 | – | 100 | 100 | 6.89 | 100 | 100 | 6.43 | CCC(C)[C@H](NC(=O)[C@H](CCC(=O)O)NC(=O)[C@@H](NC(=O)OCc1ccccc1)C(C)C)C(=O)N[C@H](/C=C/S(C)(=O)=O)CC(=O)O (stereo partly drawn) [Compound 38, Z-Val-Glu-Ile-Asp-methyl vinyl sulfone]
